Values quoted from earlier work in US20040191328A1, “Combination of gallium compounds with nonchemotherapeutic anticancer agents in the treatment of neoplasia” (priority 2002, published 2004).

How the values were obtained:
[1] = system: cells in vitro
[2] = increased exposure secondary to decreased clearance

| dose reduction of paclitaxel and doxorubicin needed to achieve equivalent myelosuppression [2] [fold] | SMILES | concentration at which growth inhibition occurs ([1]; chronic exposure, low concentrations) [µg/mL] | concentration inducing both cellular cytotoxicity and inhibition of growth ([1]; exposure of duration longer than 24 hours) [µg/mL] |
| --- | --- | --- | --- |
|  | O=[N+]([O-])[O-].O=[N+]([O-])[O-].O=[N+]([O-])[O-].[Ga+3] [Gallium nitrate, gallium nitrate] | 10 | > 50 |
| 2 | C/C=C/C[C@@H](C)C(=O)[C@H]1C(=O)N[C@@H](C(C)C)C(=O)N(C)CC(=O)N(C)[C@@H](CC(C)C)C(=O)N[C@@H](C(C)C)C(=O)N(C)[C@@H](CC(C)C)C(=O)N[C@@H](C)C(=O)N[C@H](C)C(=O)N(C)[C@@H](CC(C)C)C(=O)N(C)[C@@H](CC(C)C)C(=O)N(C)[C@@H](C(C)C)C(=O)N1C [PSC 833] |  |  |
